Data: patent publication US8426353B2, “Process for preparing polyurea microcapsules” (Firmenich SA, priority 2008, dated 2013)
Like-named read-outs stand apart in the source and are kept apart here.

What was measured:
[1] = GC-MS analysis of perfume leaked out of the capsules during one month storage in concentrated fabric softener; assay type: physicochemical; conditions: for Percentage of perfume having leaked out of the capsules upon one month storage, % In fabric softener at 22° C. / Percentage of perfume having leaked out of the capsules upon one month storage, % In fabric softener at 37° C.: perfume of Example 9 encapsulated per Example 2, capsules at 1.25%; for Percentage of perfume having leaked out of the capsules upon one month storage, % In fabric softener at 22° C.: one month at 22° C.; for Percentage of perfume having leaked out of the capsules upon one month storage, % In fabric softener at 37° C. / Percentage of ingredient having leaked out of the capsules during one month storage, % In fabric softener 37° C.: one month at 37° C.; for Percentage of ingredient having leaked out of the capsules during one month storage, % In fabric softener 37° C.: perfume of Example 6 encapsulated per Example 2, capsules at 1.25%
Description: The concentrated fabric softener base was prepared by admixing the ingredients listed in Table 4, in the amounts indicated.

[2] = GC-MS analysis of perfume leaked out of the capsules during one month storage in concentrated liquid detergent; assay type: physicochemical; conditions: for Percentage of perfume having leaked out of the capsules upon one month storage, % In Concentrated Liquid Detergent at 22° C. / Percentage of perfume having leaked out of the capsules upon one month storage, % In Concentrated Liquid Detergent at 37° C.: perfume of Example 9 encapsulated per Example 2, capsules at 1.25% in Tide 2x Concentrated HE Free; for Percentage of perfume having leaked out of the capsules upon one month storage, % In Concentrated Liquid Detergent at 22° C. / Percentage of ingredient having leaked out of the capsules during one month storage, % In concentrated Liquid Detergent 22° C.: one month at 22° C.; for Percentage of perfume having leaked out of the capsules upon one month storage, % In Concentrated Liquid Detergent at 37° C. / Percentage of ingredient having leaked out of the capsules during one month storage, % In concentrated Liquid Detergent 37° C.: one month at 37° C.; for Percentage of ingredient having leaked out of the capsules during one month storage, % In concentrated Liquid Detergent 22° C. / Percentage of ingredient having leaked out of the capsules during one month storage, % In concentrated Liquid Detergent 37° C.: perfume of Example 6 encapsulated per Example 2, capsules at 1.25% in Tide 2x Concentrated HE Free
Source text: The concentrated liquid detergent base was a commercially available Tide® 2× Concentrated HE Free of perfume & dye (trademark of Procter and Gamble, USA).
The concentrated liquid detergent base was the commercially available Tide® 2× Concentrated HE Free of perfume & dye (trademark of Procter and Gamble, USA).

[3] = LogP of the perfume ingredients
[4] = ingredients of the perfume of Example 6 (Table 1)
[5] = ingredients of the perfume of Example 9 (Table 9)

| Molecule | Percentage of perfume having leaked out of the capsules upon one month storage, % In fabric softener at 22° C. [1] | Percentage of perfume having leaked out of the capsules upon one month storage, % In fabric softener at 37° C. [1] | Percentage of perfume having leaked out of the capsules upon one month storage, % In Concentrated Liquid Detergent at 22° C. [2] | Percentage of perfume having leaked out of the capsules upon one month storage, % In Concentrated Liquid Detergent at 37° C. [2] | LogP [3] | Percentage of ingredient having leaked out of the capsules during one month storage, % In fabric softener 37° C. [1] | Percentage of ingredient having leaked out of the capsules during one month storage, % In concentrated Liquid Detergent 22° C. [2] | Percentage of ingredient having leaked out of the capsules during one month storage, % In concentrated Liquid Detergent 37° C. [2] | LogP [3, 4] | LogP [3, 5] |
| --- | --- | --- | --- | --- | --- | --- | --- | --- | --- | --- |
| CC(=O)OC/C=C(\C)CCC=C(C)C [Geranyl acetate] | 10% | 53% | 10% | 77% | 4.48 | – | – | – | – | – |
| CC(=O)OC1CCCCC1C(C)(C)C (stereo not drawn) [Verdox ®, 2-Tert-butyl-1-cyclohexyl acetate] | 3% | 8% | 3% | 17% | – | – | – | – | – | – |
| O=C1CCCCCCCCC/C=C/CCCO1 [Habanolide ®, pentadecenolide] | 0% | 0% | 0% | 0% | – | 1% | 0% | 0% | – | – |
| CC1=CCC(C(C)CC2CCCC2=O)CC1 (stereo not drawn) [Nectalactone, (1′R)-2-[2-(4′-methyl-3′-cyclohexen-1′-yl)propyl]cyclopentanone] | – | – | – | – | – | 5% | 1% | 19% | 5.05 | – |
| CCCCCCCCCCCCCC(=O)OC(C)C [Isopropyl myristate] | – | – | – | – | 7.17 | – | – | – | – | – |
| CC(=O)O[C@@H]1C[C@H]2CC[C@]1(C)C2(C)C (racemic) [Isobornyl acetate] | 4% | 12% | 4% | 21% | 3.86 | – | – | – | – | – |
| C=CCOC(=O)COC1CCCCC1 [Cyclogalbanate, Allyl (cyclohexyloxy)-acetate] | 15% | 82% | 15% | – | – | – | – | – | – | – |
| CCC(=O)OC1CC2CC1C1CC=CC21 (stereo not drawn) [Verdyl propionate] | 5% | 8% | 5% | 51% | – | – | – | – | – | 3.34 |
| (1′R,E)-3,3-dimethyl-5-(2′,2′,3′-trimethyl-3′-cyclopenten-1′-yl)-4-penten-2-ol [Polysantol ®] | – | – | – | – | – | 2% | 1% | 6% | 5.39 | – |
| CC(=O)OC1CCC(C(C)(C)C)CC1 (stereo not drawn) [Lorysia ®, 4-(1,1-dimethylethyl)-1-cyclohexyl acetate] | – | – | – | – | 4.42 | 5% | 1% | 11% | – | – |
| O=C(OC1CCCCC1)c1ccccc1O [Cyclohexyl salicylate] | – | – | – | – | 4.87 | 7% | 1% | 25% | – | – |
| CC1CCC(C(C)(C)O)CC1 (stereo not drawn) [Dihydroterpineol] | 13% | 85% | 13% | – | – | – | – | – | – | 3.42 |
| CCCC(C)C(=O)OCC (stereo not drawn) [Ethyl 2-methyl-pentanoate] | 48% | 99% | 48% | 99% | – | – | – | – | – | 2.76 |
| CC1=CC(C)C(C=O)CC1 (stereo not drawn) [2,4-Dimethyl-3-cyclohexene-1-carbaldehyde] | 20% | 40% | 20% | 70% | – | – | – | – | – | – |
| C/C=C/C(=O)C1C(C)C=CCC1(C)C (stereo not drawn) [δ-Damascone] | 3% | 10% | 3% | 16% | – | 3% | 1% | 8% | 4.13 | 4.13 |
| CC(C)=CCCC1=CCC(C)(C=O)CC1 (stereo not drawn) [1-Methyl-4-(4-methyl-3-pentenyl)-3-cyclohexene-1-carbaldehyde] | – | – | – | – | 5.19 | 1% | 2% | 20% | – | – |
| CC1(C)CCCC2(C)C1CCC1(C)OCCC12 (stereo not drawn) [Cetalox ®, dodecahydro-3a,6,6,9a-tetramethyl-naphtho[2,1-b]furan] | – | – | – | – | – | 3% | 0% | 4% | – | – |
| CC1(O)CCC2C(=CCCC2(C)C)C1 (stereo not drawn) [Octalynol] | – | – | – | – | – | 3% | – | – | 4.28 | – |
| CC(=O)/C=C/C1=C(C)CCCC1(C)C [β-Ionone] | 3% | 13% | 3% | 27% | – | 5% | 1% | 14% | – | – |
